Measured values reported in PubChem BioAssay (NCI).
Several values for one entry are separate records, joined by “and”; a condition that tells them apart may be missing. Equal entries are not always repeated.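 All cell lines were grown in 96-well plates and treated with compound for 48 hours. Abbreviation: GI50, concentration required for 50% inhibition of growth. The concentration for full growth arrest is given as TGI.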

test system: MDA-MB-468 breast; test: growth of human tumour cells (NCI), 48 h

SMILES	GI50	TGI
CCc1ccc(CCC(=O)Nc2ncc(Cc3ccc(Cl)cc3)s2)o1	0.342 µM	–
Nc1nc([Se])c2ncn(C3OC(CO)C(O)C3O)c2n1 (centres undefined)	50.2 µM	> 100 µM
Cc1cccc2nc3ccccc3c(Nc3ccc(NS(C)(=O)=O)cc3)c12	8.53 µM	26.3 µM
NC(=O)c1cc([N+](=O)[O-])c(Cl)c([N+](=O)[O-])c1Cl	0.188 µM	0.436 µM
COc1ccc2c(c1)c(-c1nc(-c3c[nH]c4ccncc34)cs1)cn2C	0.442 µM	1.85 µM
CCCCCCCCCCCCCCCCCCn1cc[n+](C)c1	0.215 µM	1.64 µM
CCOC(=O)Oc1cc2c(c(OC)c1OC)-c1ccc(OC)c(=O)cc1C(NC(C)=O)CC2 (centres undefined)	< 0.01 µM	> 100 µM
CNC(=O)c1c(NC(=O)c2ccc(C(C)(C)C)cc2)sc2c(CN(C)C)c(O)ccc12	1.67 µM	3.36 µM
COc1ncc(Nc2ncc([C@@H](C)N3CCN(S(C)(=O)=O)CC3)cc2-c2nc(C)nc(N)n2)cc1F	< 0.0148 µM	0.16 µM
Cc1ccccc1NC(=O)c1sc2nc(C)c(C(=O)/C=C/c3ccccc3)cc2c1N	0.927 µM	1.82 µM
COc1ccc2c(c1OC)CO[C@@H]2[C@H]1c2c(cc3c(c2OC)OCO3)CCN1S(=O)(=O)c1cn(C)cn1	0.324 µM	5.93 µM
CNC(=O)c1cc(Oc2ccc(NC(=O)Nc3ccc(Cl)c(C(F)(F)F)c3)c(F)c2)ccn1	2.06 µM and 1.67 µM	5.58 µM and 7.93 µM
CC1=C(SCCC(=O)OC(C[Se]C2=C(C)C(=O)c3ccccc3C2=O)C(=O)NCCCCCC(=O)OCc2ccccc2)C(=O)c2ccccc2C1=O (centres undefined)	3 µM	8.54 µM
COc1cc(OC)cc(-c2n/c(=C\c3c(O)[nH]c4ccc(OC)cc34)cc3c2=Nc2ccccc2-3)c1	12.1 µM	29.8 µM
COc1cc(/C=N/Nc2ncnc3c2cnn3-c2ccccc2)ccc1O	4.93 µM	> 25 µM
NCCCC[C@@H]1NC(=O)[C@H](CC(=O)O)NC(=O)CNC(=O)[C@H](CCCN=C(N)N)NC(=O)[C@@H](N)CSSC[C@@H](C(=O)O)NC(=O)[C@H](CC(=O)O)NC(=O)[C@@H]2CCCN2C(=O)CNC1=O	> 100 µM	> 100 µM
COCc1c(-c2cc3cc(C)cc(OC)c3s2)c2c(N)ncnn2c1CN1CCNC(=O)C1	1.76 µM	7.46 µM
CCC(C)[C@H](NC(=O)Nc1cc(C(F)(F)F)cc(C(F)(F)F)c1)C(=O)N[C@@H](Cc1cn(C)cn1)C(=O)OC (some centres undefined)	0.476 µM	0.971 µM
CCC(C)Nc1ccc(N)cc1 (centres undefined)	2.05 µM	6.51 µM
CC(C)(C)c1ccc(Oc2ccc(N)cn2)cc1	28.3 µM	> 100 µM

SMILES	GI50	TGI
CCN(CC)CCCNc1cc(OC)cc2nc3cc(Cl)ccc3nc12	1.15 µM	2.67 µM
CC(N)(Cc1c[nH]c2cccc(F)c12)C(=O)O (centres undefined)	> 1000 µM	> 1000 µM
COc1cc(Nc2ncc(-c3ccccc3)o2)cc(OC)c1	7.94 µM	> 25 µM
COc1ccc2c(c1)[nH]c(=O)c1c3cccc(F)c3cn21	0.187 µM	0.487 µM
COc1ccc(CN2c3ccccc3Sc3ccccc32)c(C(F)(F)F)c1	0.275 µM	13.6 µM
COc1cccc(CC(C)=C(c2ccc(OCCN3CCCCC3)cc2)c2ccc(OCCN3CCCCC3)cc2)c1	0.641 µM	2.71 µM
COc1ccc(C/C(=C(\C)c2ccc(OCCN3CCCC3)cc2)c2ccc(OCCN3CCCC3)cc2)cc1	1.62 µM	3.14 µM
CC1(C)CNc2cc(NC(=O)c3cccnc3NCc3ccncc3)ccc21	12.7 µM	66.2 µM
CC1C(C)N(C(=O)CCl)c2ccccc2N1C(=O)CCl (centres undefined)	0.296 µM	1.21 µM
COC(=O)[C@H](Cc1cnc[nH]1)NC(=O)[C@@H](NC(=O)Nc1cc(C(F)(F)F)cc(C(F)(F)F)c1)C(C)C	11.1 µM	25.6 µM
CC1=C2[C@@H](CC1)[C@]1(C)O[C@@](C(C)C)(C[C@H]1OC(=O)CO)[C@H]2OC(=O)C1CC1c1ccccc1 (some centres undefined)	13.2 µM	29.5 µM
Cc1ccc(/C=N/Nc2nc(Nc3ccccc3)nc(-n3nc(C)cc3C)n2)cc1	3.63 µM	17.1 µM
O=C(N/N=C\c1ccc(N(CCCl)CCCl)cc1[N+](=O)[O-])c1cccnc1	> 100 µM	> 100 µM
COC12C=C/C(=C(/C(=O)OCc3ccccn3)C(=O)CCCCCCCCC3(OC)C=C/C(=C(/C(=O)OCc4ccccn4)C(=O)CCCCCCCC1)O3)O2	0.314 µM	1.15 µM
COc1cc(/C=C/C(=O)/C=C/c2ccc(-n3ccnc3C)cc2)ccc1O	2.06 µM	4.72 µM
O=C(Nc1ccccc1)Nc1ccc2cc3ccc(NC(=O)Nc4ccccc4)cc3nc2c1	0.579 µM	1.92 µM
CNC(=O)c1c(NC(=O)c2ccc(C(C)(C)C)cc2)sc2c1CCC(=O)C2	0.411 µM	2.07 µM
Nc1ccc(C2=CC(c3ccc(Cl)cc3)N3C=CSC3=N2)cc1 (centres undefined)	1.9 µM	4.29 µM
CC1=C(c2ccccc2)C(O)(c2ccccc2)C(C)C1=O (centres undefined)	4.28 µM	40.3 µM
CCN(Cc1ccccc1)C1CCN(Cc2cc(Br)ccc2O)CC1	15.1 µM	40.8 µM
